{"source": "ChEMBL document CHEMBL1201862", "about": "“PubChem BioAssay data set” (2004)", "key": {"[1]": {"biological_target": "T1, Corticotropin-releasing factor receptor 2/Corticotropin-releasing factor-binding protein (Homo sapiens, UniProt P24387+Q13324)", "T1 sequence (Q13324 whole entry)": "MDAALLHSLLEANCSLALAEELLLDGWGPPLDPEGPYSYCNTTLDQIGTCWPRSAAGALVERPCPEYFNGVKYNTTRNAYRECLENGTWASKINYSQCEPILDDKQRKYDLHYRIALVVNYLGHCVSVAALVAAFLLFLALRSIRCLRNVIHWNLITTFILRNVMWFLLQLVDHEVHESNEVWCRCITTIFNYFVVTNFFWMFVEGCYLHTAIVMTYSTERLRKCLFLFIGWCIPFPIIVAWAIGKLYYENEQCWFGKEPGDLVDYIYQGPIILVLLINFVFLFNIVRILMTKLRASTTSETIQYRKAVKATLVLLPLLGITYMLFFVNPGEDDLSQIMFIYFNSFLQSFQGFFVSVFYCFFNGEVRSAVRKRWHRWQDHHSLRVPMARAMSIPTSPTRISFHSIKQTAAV", "T1 sequence (P24387 whole entry)": "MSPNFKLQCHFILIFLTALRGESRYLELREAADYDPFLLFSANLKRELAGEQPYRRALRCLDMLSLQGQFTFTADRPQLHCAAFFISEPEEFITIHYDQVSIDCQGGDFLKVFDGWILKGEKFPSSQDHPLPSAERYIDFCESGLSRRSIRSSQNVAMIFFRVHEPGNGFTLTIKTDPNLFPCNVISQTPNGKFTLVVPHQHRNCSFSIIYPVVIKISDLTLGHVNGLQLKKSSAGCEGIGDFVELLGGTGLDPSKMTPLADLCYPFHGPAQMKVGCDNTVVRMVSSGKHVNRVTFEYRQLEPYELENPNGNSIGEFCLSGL", "assay": "activators of CRF receptor 2 with binding protein – uHTS hits, confirmation (AID 602473)", "assay_type": "functional", "conditions": "read-out: EC50_Mean"}, "[2]": {"biological_target": "T1, Corticotropin-releasing factor receptor 2/Corticotropin-releasing factor-binding protein", "assay": "Dose Response confirmation of uHTS hits for small molecule antagonists of the CRF-binding protein and CRF-R2 receptor complex.", "assay_type": "functional", "conditions": "read-out: IC50_Mean"}, "Large T antigen": {"biological_target": "Large T antigen (Simian virus 40, UniProt P03070)", "sequence (P03070 whole entry)": "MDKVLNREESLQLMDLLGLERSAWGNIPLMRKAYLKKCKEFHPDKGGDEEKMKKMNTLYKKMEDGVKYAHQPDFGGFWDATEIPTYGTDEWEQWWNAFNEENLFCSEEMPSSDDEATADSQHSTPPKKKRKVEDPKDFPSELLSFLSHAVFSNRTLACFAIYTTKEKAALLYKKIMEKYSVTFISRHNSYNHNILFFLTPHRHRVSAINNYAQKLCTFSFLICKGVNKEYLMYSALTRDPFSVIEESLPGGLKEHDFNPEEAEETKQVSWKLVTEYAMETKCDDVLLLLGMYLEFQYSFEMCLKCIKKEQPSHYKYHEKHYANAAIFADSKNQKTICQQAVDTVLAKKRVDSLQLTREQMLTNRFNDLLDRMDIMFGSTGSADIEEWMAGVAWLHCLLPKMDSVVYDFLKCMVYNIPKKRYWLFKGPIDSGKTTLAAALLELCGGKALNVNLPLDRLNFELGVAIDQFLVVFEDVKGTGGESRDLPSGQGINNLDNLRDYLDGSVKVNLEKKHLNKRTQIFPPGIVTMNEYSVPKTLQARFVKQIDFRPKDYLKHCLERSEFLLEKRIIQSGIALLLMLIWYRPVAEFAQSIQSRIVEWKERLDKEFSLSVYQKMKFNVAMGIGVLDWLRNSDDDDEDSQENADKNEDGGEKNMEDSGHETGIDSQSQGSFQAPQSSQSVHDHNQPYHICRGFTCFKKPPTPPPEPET", "assay_type": "functional, Betapolyomavirus macacae"}, "Prothrombin": {"biological_target": "Prothrombin (Homo sapiens, UniProt P00734)", "assay": "Thrombin 1536 HTS Dose Response Confirmation. [Related pubchem assays: 1046 (Thrombin 1536 HTS; hits were confirmed in this assay)]", "assay_type": "functional"}, "[3]": {"biological_target": "T2, Voltage-gated N-type calcium channel alpha-1B subunit/Amyloid beta A4 precursor protein-binding family A member 1 (Homo sapiens, UniProt Q00975+Q02410)", "T2 sequence (Q00975 whole entry)": "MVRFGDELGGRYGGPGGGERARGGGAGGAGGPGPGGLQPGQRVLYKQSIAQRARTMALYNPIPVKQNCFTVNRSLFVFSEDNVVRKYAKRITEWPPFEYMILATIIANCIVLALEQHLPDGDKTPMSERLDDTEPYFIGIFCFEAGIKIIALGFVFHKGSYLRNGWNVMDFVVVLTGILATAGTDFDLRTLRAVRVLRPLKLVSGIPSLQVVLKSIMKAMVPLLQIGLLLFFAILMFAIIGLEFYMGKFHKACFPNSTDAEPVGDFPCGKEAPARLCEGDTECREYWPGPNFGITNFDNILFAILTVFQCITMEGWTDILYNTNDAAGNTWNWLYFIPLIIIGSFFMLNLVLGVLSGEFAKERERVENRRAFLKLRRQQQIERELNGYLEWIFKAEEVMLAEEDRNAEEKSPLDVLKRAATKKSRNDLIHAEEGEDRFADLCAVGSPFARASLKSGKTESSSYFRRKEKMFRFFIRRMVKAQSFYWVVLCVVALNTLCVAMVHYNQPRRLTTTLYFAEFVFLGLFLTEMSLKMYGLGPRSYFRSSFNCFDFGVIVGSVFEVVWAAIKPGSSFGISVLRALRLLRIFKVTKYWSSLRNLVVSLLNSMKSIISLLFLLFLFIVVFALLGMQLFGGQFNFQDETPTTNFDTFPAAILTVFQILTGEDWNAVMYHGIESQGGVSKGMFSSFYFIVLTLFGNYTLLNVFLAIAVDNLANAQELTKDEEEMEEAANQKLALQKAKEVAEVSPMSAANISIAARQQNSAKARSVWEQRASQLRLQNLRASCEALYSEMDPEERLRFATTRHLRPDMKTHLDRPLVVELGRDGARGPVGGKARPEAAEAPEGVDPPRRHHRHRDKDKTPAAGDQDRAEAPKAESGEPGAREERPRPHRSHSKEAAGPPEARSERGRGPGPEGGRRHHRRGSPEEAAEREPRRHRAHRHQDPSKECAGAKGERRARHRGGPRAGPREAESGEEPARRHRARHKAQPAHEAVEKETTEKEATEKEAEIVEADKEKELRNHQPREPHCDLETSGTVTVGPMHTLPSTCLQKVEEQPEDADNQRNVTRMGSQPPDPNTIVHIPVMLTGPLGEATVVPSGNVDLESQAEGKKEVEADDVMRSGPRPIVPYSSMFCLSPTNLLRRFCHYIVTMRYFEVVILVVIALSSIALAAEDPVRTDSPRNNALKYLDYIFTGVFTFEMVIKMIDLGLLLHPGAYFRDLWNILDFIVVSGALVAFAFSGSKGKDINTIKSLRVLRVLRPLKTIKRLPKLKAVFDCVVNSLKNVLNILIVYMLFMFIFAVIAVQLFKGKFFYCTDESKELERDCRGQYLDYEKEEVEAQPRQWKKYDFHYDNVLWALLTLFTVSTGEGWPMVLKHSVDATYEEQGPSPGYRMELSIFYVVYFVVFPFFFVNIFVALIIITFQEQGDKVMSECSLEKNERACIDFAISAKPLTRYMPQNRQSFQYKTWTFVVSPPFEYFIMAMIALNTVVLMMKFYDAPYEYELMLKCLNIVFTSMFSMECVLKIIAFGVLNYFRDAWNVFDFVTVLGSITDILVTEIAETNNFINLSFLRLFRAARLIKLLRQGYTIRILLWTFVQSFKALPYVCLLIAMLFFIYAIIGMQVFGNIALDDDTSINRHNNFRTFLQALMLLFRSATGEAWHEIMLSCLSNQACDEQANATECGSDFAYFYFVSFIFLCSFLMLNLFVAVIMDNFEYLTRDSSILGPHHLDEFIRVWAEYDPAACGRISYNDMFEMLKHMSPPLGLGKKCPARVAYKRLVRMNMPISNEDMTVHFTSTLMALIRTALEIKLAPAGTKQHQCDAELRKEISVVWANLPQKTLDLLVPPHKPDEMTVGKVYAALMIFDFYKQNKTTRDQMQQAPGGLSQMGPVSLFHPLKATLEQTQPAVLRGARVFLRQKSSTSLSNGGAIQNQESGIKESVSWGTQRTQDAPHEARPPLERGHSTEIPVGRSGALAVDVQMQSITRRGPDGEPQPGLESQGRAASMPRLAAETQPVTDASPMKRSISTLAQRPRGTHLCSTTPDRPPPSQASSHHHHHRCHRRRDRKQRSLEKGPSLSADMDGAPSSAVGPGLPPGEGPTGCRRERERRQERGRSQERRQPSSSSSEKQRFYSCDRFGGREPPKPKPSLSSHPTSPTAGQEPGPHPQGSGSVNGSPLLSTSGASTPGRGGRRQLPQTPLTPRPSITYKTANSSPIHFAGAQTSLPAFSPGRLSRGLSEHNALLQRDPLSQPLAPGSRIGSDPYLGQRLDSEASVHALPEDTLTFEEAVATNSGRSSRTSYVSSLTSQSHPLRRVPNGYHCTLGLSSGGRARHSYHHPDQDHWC", "T2 sequence (Q02410 whole entry)": "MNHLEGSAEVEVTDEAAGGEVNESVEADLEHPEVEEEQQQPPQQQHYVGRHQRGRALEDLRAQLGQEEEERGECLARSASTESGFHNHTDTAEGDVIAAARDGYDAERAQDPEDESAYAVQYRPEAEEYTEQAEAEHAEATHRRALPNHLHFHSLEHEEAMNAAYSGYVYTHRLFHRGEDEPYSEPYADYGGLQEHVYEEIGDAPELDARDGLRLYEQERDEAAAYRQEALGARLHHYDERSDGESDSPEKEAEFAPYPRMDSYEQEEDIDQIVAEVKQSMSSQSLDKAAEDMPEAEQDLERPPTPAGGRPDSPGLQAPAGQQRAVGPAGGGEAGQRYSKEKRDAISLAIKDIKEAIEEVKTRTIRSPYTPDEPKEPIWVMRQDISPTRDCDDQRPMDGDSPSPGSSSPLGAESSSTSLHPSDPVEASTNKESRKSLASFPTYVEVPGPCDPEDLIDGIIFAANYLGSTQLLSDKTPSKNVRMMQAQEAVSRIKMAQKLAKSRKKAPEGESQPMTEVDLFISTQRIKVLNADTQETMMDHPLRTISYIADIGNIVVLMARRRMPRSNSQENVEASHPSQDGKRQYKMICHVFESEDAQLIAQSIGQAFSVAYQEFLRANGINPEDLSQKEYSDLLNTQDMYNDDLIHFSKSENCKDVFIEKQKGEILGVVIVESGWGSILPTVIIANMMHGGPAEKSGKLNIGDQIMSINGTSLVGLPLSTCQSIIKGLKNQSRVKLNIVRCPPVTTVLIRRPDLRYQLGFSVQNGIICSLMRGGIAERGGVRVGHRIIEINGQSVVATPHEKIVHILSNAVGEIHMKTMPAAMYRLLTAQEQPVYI", "assay_type": "protein assay"}, "SUMO-activating enzyme [4]": {"biological_target": "T3, SUMO-activating enzyme (Homo sapiens, UniProt Q9UBT2)", "T3 sequence (Q9UBE0 whole entry)": "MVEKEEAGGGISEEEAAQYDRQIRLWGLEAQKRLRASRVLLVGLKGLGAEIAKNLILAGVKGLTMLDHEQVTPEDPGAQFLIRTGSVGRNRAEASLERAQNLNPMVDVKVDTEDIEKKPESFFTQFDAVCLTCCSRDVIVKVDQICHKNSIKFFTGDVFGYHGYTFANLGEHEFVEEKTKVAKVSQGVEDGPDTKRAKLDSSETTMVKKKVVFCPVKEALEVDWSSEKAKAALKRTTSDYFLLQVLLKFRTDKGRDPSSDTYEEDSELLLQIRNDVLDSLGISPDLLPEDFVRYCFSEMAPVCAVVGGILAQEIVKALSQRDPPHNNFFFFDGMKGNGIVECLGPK", "T3 sequence (Q9UBT2 whole entry)": "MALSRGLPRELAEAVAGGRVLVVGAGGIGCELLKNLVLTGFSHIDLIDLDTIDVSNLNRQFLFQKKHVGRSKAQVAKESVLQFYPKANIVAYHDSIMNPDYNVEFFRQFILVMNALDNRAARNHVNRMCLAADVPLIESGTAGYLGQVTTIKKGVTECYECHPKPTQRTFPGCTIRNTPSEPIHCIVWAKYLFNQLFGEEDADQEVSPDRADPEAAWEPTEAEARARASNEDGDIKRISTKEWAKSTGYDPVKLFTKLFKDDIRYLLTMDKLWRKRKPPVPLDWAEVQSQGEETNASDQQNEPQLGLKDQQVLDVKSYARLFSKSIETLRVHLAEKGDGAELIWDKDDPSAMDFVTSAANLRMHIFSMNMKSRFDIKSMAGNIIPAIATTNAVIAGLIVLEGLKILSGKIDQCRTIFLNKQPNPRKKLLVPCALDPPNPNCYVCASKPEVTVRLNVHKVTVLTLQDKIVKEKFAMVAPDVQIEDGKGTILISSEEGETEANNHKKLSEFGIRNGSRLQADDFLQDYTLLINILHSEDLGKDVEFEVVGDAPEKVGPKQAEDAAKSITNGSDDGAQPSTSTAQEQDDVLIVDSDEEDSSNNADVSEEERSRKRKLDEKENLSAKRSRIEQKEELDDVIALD", "assay": "SUMOylation inhibitor hit validation, confirmation, SUMOylation inhibitor project, biochemical, AlphaScreen (AID 2018)", "assay_type": "functional"}, "[5]": {"biological_target": "T2, Voltage-gated N-type calcium channel alpha-1B subunit/Amyloid beta A4 precursor protein-binding family A member 1", "assay_type": "protein assay", "remark": "listed apart in the source"}, "SUMO-activating enzyme [6]": {"biological_target": "T3, SUMO-activating enzyme", "assay": "inhibitors of in vitro SUMOylation cascade, primary screen, biochemical, HTRF, uHTS (AID 2006)", "assay_type": "protein-complex assay"}, "Nonstructural protein 1": {"biological_target": "Nonstructural protein 1 (Influenza A virus, UniProt Q194T2)", "sequence (Q194T2 whole entry)": "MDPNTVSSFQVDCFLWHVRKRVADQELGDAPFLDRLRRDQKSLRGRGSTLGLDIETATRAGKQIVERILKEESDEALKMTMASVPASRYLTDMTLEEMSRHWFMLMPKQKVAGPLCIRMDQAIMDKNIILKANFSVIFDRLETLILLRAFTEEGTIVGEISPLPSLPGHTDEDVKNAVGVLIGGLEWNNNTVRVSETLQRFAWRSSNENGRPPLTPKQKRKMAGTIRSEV", "assay_type": "functional, Influenza A virus (A/California/07/2009(H1N1))"}, "P388/ADR": {"system": "P388/ADR", "assay": "cells", "assay_type": "functional", "conditions": "Mus musculus"}, "SN12K1": {"system": "SN12K1", "assay": "cells", "assay_type": "functional", "conditions": "Homo sapiens"}, "P388": {"system": "P388", "assay": "cells", "assay_type": "functional", "conditions": "Mus musculus"}, "[7]": {"biological_target": "DNA dC->dU-editing enzyme APOBEC-3G (Homo sapiens, UniProt Q9HC16)", "assay": "Dose Response confirmation of small molecule APOBEC3G DNA Deaminase Inhibitors via a fluorescence-based single-stranded DNA deaminase assay. [Related pubchem assays (depositor defined):AID493012, AID493028]", "assay_type": "functional"}, "INS1": {"system": "INS1", "assay": "beta cell apoptosis inhibitors, cytokine rescue, dose response, luminescence, retest (AID 449756);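 also: cell death triggered by IL-1 beta plus TNF-alpha plus IFN-gamma mixture; protective hits raise ATP signal compared with cytokine alone wells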", "assay_type": "functional, cell-based", "conditions": "Rattus norvegicus"}, "HEK293": {"system": "HEK293", "assay": "inhibitors of LMP1-driven NF-kB reporter, dose response, cell-based, HEK293, luciferase, cherry-pick (AID 588343)", "assay_type": "functional", "conditions": "Homo sapiens"}, "[8]": {"assay": "P. falciparum Dd2 growth inhibitors, dose response, SYBR Green, dry powder samples (AID 1159566);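 also: potency for growth inhibition with lower SYBR green DNA signal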", "assay_type": "functional, cell-based"}, "[9]": {"assay": "P. falciparum 3D7-ScDHODH growth inhibitors, dose response, SYBR Green, dry powder samples (AID 1159570);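 also: parasite growth measured after 72 hours of compound exposure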", "assay_type": "functional, cell-based"}, "[10]": {"assay": "P. falciparum Dd2 growth inhibitors, dose response, SYBR Green, cherry-picked samples (AID 1159567)", "assay_type": "functional, cell-based"}, "[11]": {"assay": "P. falciparum ATP4 D1247Y mutant growth inhibitors, dose response, NITD609-resistant line, SYBR Green, dry powder (AID 1159571);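 also: parasites synchronized at ring stage by sorbitol before testing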", "assay_type": "functional, cell-based"}}, "note": "Activity calls are given as the source filed them."}
{"compound": "Cc1ccc(-c2ccc(=O)n(Cc3cc(C)ccc3C)n2)cc1", "values": [{"measurement": "EC50", "setting": "[1]", "result": "> 53 µM (inactive)"}, {"measurement": "IC50", "setting": "[2]", "result": "> 47.1 µM (inactive)"}]}
{"compound": "COc1ccc(NC2CCCN(C(=O)c3ccc(OC)cc3OC)C2)cc1", "note": "(stereo not given)", "values": [{"measurement": "IC50", "setting": "Large T antigen", "result": "82.4 µM (active)"}]}
{"compound": "O=C(c1ccco1)n1nc(-c2cccnc2)nc1NCc1ccco1", "values": [{"measurement": "IC50", "setting": "Prothrombin", "result": "0.134 µM (active)"}]}
{"compound": "O=C(Nc1ccc2oc(-c3cccc4ccccc34)nc2c1)c1nnc[nH]1", "values": [{"measurement": "IC50", "setting": "[3]", "result": "2.92 µM (active)"}, {"measurement": "IC50", "setting": "SUMO-activating enzyme [4]", "result": "3.45 µM (active)"}, {"measurement": "IC50", "setting": "[5]", "result": "> 50 µM (inactive)"}, {"measurement": "IC50", "setting": "SUMO-activating enzyme [6]", "result": "11.8 µM (active)"}]}
{"compound": "Cc1ccc(C)c(SCC(=O)OCC(=O)Nc2ccc(S(=O)(=O)N3CCOCC3)cc2)c1", "values": [{"measurement": "IC50", "setting": "Prothrombin", "result": "5.72 µM (active)"}]}
{"compound": "O=C1C(NS(=O)(=O)c2ccccc2)=C(N2CCN(c3ccc(F)cc3)CC2)C(=O)c2ccccc21", "values": [{"measurement": "IC50", "setting": "Nonstructural protein 1", "result": "18.1 µM (active)"}]}
{"compound": "CC(=O)N1CCN(c2ccc(NCc3ccc(-c4ccc(Br)cc4)o3)cc2)CC1", "values": [{"measurement": "IC50", "setting": "Nonstructural protein 1", "result": "41.1 µM (active)"}]}
{"compound": "S=P1(N2CCCCC2)Oc2ccc3ccccc3c2-c2c(ccc3ccccc23)O1", "values": [{"measurement": "GI50", "setting": "P388/ADR", "result": "> 100 µM (inactive)"}, {"measurement": "GI50", "setting": "SN12K1", "result": "> 61.8 µM (inactive)"}, {"measurement": "GI50", "setting": "P388", "result": "48.4 µM (inactive)"}]}
{"compound": "C(=C/c1nc2ccccc2o1)/c1ccc2c(c1)OCO2", "values": [{"measurement": "GI50", "setting": "P388/ADR", "result": "3.99 µM (inactive)"}, {"measurement": "GI50", "setting": "SN12K1", "result": "5.62 µM (inactive)"}, {"measurement": "GI50", "setting": "P388", "result": "3.52 µM (inactive)"}]}
{"compound": "COc1ccc(OCC(C)(C)O)cc1", "values": [{"measurement": "GI50", "setting": "P388/ADR", "result": "1.31 µM (inactive)"}, {"measurement": "GI50", "setting": "SN12K1", "result": "> 100 µM (inactive)"}, {"measurement": "GI50", "setting": "P388", "result": "38.2 µM (inactive)"}]}
{"compound": "O=S1(=O)CS(=O)(=O)OCCO1", "values": [{"measurement": "GI50", "setting": "P388/ADR", "result": "7.36 µM (inactive)"}, {"measurement": "GI50", "setting": "SN12K1", "result": "28.6 µM (inactive)"}, {"measurement": "GI50", "setting": "P388", "result": "10.8 µM (inactive)"}]}
{"compound": "Cc1ccc(N2Cc3c(ccc4ccccc34)OP2(=O)Oc2ccc(Cl)c(C)c2)cc1", "note": "(stereo not given)", "values": [{"measurement": "GI50", "setting": "P388/ADR", "result": "7.45 µM (inactive)"}, {"measurement": "GI50", "setting": "SN12K1", "result": "> 77.8 µM (inactive)"}, {"measurement": "GI50", "setting": "P388", "result": "4.75 µM (inactive)"}]}
{"compound": "CCOC(=O)c1sc(N/N=C/c2ccccc2)nc1C", "values": [{"measurement": "IC50", "setting": "[7]", "result": "40.4 µM (active)"}]}
{"compound": "COc1ccc(Cc2nnc(N/N=C/c3ccc(O)cc3)nc2O)cc1OC", "values": [{"measurement": "AC50", "setting": "INS1", "result": "0.946 µM (active)"}, {"measurement": "AC50", "setting": "HEK293", "result": "4.42 µM (active)"}, {"measurement": "IC50", "setting": "Nonstructural protein 1", "result": "1.19 µM (active)"}]}
{"compound": "COc1cc(/C=N/NC(=O)c2ccc3c(c2)OCCO3)cc(Cl)c1O", "values": [{"measurement": "IC50", "setting": "Large T antigen", "result": "22.7 µM (active)"}]}
{"compound": "COc1ccc2c3c(n(C)c2c1)[C@@H](CO)N(C(=O)c1ccccc1)CC31CCN(C(=O)c2ccccc2)CC1", "values": [{"measurement": "AC50", "setting": "[8]", "result": "1.04 µM (active)"}, {"measurement": "AC50", "setting": "[9]", "result": "2.28 µM (active)"}, {"measurement": "AC50", "setting": "[10]", "result": "2.56 µM (active)"}, {"measurement": "AC50", "setting": "[11]", "result": "1.55 µM (active)"}]}
